The results in this text go back to ChEMBL document CHEMBL2074543, “Interactions of cationic drugs and cardiac glycosides at the hepatic uptake level: studies in the rat in vivo, isolated perfused rat liver, isolated rat hepatocytes and oocytes expressing oatp2” (Arch Pharm Res, 2002).

This data set addresses T1, Solute carrier organic anion transporter family member 1A4 (Rattus norvegicus, UniProt O35913).
T1 sequence (O35913 whole entry): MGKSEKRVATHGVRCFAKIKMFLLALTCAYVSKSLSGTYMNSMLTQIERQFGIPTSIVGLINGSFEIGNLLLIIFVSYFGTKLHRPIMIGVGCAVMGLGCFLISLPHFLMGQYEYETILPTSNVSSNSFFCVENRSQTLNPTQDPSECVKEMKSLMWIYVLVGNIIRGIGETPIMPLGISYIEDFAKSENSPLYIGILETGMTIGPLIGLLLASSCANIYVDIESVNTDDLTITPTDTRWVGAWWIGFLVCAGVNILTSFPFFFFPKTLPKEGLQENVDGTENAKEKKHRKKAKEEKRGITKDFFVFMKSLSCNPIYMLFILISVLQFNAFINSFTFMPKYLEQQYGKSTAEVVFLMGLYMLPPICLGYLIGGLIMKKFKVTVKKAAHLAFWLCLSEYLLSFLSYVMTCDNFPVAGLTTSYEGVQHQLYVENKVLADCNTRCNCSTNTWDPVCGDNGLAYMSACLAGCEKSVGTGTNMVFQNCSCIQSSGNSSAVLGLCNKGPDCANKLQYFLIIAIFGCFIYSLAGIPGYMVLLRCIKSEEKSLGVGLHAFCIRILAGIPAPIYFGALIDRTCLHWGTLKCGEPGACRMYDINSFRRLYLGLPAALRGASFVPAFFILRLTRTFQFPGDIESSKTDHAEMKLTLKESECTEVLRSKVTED
The data set can be described thus: TP_TRANSPORTER: inhibition of Rocuronium uptake in Xenopus laevis oocytes. The format is functional, cell-based. The following applies: oocyte.

For the compound `CCCC[N+](C)(CCCC)CCCC` [TRIBUTYLMETHYLAMMONIUM], the Activity entry is “is not an inhibitor [-]”.
In the case of `CC[N+](C)(CC)CCNC(=O)c1ccc(N=[N+]=[N-])cc1.[I-]` [AZIDOPROCAINAMIDE METHOIODIDE], the Activity result is “is not an inhibitor [-]”.
